Source: publication PMC2151509 (The Journal of General Physiology, 2006)
Changes are numbered by the printed parent chain.

Tests used:
[1] = target: T1, rat olfactory CNGA2 channel (homomeric) (Rattus norvegicus, UniProt Q00195, E342K); experiment: inside-out patch clamp, cGMP-activated current, Hill fit; format: cell-based
T1 sequence (Q00195 1-664 E342K): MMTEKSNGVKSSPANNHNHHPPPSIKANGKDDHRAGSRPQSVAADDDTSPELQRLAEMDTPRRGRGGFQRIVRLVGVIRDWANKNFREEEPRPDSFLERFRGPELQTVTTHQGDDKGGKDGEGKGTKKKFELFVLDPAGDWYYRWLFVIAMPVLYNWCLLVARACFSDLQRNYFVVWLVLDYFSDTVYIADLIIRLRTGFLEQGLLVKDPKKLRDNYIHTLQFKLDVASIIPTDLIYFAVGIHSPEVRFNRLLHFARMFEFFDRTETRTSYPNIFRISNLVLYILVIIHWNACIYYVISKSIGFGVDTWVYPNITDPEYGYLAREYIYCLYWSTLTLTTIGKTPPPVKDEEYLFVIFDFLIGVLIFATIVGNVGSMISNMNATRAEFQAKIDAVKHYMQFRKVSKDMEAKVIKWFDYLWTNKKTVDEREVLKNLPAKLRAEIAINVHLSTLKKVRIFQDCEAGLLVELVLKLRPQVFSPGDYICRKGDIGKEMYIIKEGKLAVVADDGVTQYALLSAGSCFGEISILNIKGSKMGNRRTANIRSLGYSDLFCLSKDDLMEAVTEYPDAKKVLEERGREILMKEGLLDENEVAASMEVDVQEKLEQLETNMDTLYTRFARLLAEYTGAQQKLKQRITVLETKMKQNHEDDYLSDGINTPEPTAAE

[2] = target: T2, rat olfactory CNGA2 channel (homomeric) (Rattus norvegicus, UniProt Q00195); experiment: inside-out patch clamp, cGMP-activated current; format: biochemical; details: agonist; 5 mM cGMP; 145 mM NaCl, pH 7.4, 21 °C
T2 sequence (Q00195 1-664): T1 sequence (Q00195 1-664 E342K) with K342E

EC50 [1]: 8.6 ± 1.2 µM
Compound: Nc1nc2c(ncn2[C@@H]2O[C@@H]3COP(=O)(O)O[C@H]3[C@H]2O)c(=O)[nH]1 [cGMP]
inside-out patch clamp, cGMP-activated current [2]: Macroscopic cGMP-activated currents in different NaCl dilutions in one inside-out patch with WT CNG channels
